Measurements as given in paper PMC5812345 (Chemistry (Weinheim an der Bergstrasse, Germany), 2017).

Tested on: U87-stb-CXCR4 cells
Test: In vitro binding/uptake of 64Cu-labeled cyclotides to U87-stb-CXCR4 cells
Type: cell-based, human
Settings: inhibitor at 10 μM

c1cc(CN2CCCNCCNCCCNCC2)ccc1CN1CCCNCCNCCCNCC1 [AMD3100]
Reduction in bound [^64Cu]MCo-CVX-6D in the presence of excess non-radioactive inhibitor: ≈ 30%
